pIC50: −log10 of the molar value. Calls of active or inactive are those of the source. No cut-off for these calls is given here.

The target in assay [1] is Integrin alpha-4 (Homo sapiens) (UniProt P13612). As to the kind of experiment: Inhibition of alpha4 integrin-dependent cell migration in CHO cells expressing alpha4 integrin after 12 hrs by wound healing assay. The class given is cell-based.
The test system of assay [2] is Jurkat. As to the kind of experiment: Inhibition of human Jurkat T cell motility after 4.5 hrs by modified Boyden chamber assay. Format: functional, cell-based.
In assay [3] the target is T1, Gamma-parvin (Homo sapiens) (UniProt Q9HBI0).
T1 sequence (whole entry): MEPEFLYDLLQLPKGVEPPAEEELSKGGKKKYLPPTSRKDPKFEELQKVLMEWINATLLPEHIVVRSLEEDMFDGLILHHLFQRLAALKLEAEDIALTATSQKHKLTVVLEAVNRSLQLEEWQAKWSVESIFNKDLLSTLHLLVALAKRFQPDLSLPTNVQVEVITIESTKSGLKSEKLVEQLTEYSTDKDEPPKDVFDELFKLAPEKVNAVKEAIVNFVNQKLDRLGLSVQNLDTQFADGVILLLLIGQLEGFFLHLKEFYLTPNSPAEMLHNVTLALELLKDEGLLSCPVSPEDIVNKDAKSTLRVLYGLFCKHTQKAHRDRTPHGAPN
The assay is described as follows: Binding affinity to gamma-parvin in human Jurkat cells at 100 uM by Western blot analysis. Format: cell-based.

In assay [4] the target is Adenosine kinase (Homo sapiens) (UniProt P55263). As to the kind of experiment: Binding affinity to ADK in human Jurkat cells at 100 uM by Western blot analysis. Format: cell-based. On the technique in general: In western blotting, separated proteins are transferred to a membrane and probed.
The target of assay [5] is Integrin alpha-4 (Homo sapiens) (UniProt P13612). As to the kind of experiment: Inhibition of alpha4 integrin-dependent cell migration in PMA-stimulated human Jurkat cells at 1 or 5 uM after 4.5 hrs. The class given is cell-based. Also on record: scale not given: the % may be the effect or the level left.
Assay [6] shares this target. As to the kind of experiment: Inhibition of alpha4 integrin-dependent cell migration in SDF1-alpha-stimulated human Jurkat cells at 1 or 5 uM after 4.5 hrs. The class given is cell-based. Also on record: scale not given: the % may be the effect or the level left.
Assay [7] shares this target. The assay is described as follows: Inhibition of alpha4 integrin-dependent cell migration in PMA-stimulated human U937 cells at 1 or 5 uM after 4.5 hrs. Format: cell-based. Further details: scale not given: the % may be the effect or the level left. Particulars: U-937.
The target is the same in assay [8]. As to the kind of experiment: Inhibition of alpha4 integrin-dependent cell migration in SDF1-alpha-stimulated human U937 cells at 1 or 5 uM after 4.5 hrs. The class given is cell-based. Further details: scale not given: the % may be the effect or the level left. As to conditions: U-937.

Integrin alpha-4 (Homo sapiens), sequence (P13612 whole entry): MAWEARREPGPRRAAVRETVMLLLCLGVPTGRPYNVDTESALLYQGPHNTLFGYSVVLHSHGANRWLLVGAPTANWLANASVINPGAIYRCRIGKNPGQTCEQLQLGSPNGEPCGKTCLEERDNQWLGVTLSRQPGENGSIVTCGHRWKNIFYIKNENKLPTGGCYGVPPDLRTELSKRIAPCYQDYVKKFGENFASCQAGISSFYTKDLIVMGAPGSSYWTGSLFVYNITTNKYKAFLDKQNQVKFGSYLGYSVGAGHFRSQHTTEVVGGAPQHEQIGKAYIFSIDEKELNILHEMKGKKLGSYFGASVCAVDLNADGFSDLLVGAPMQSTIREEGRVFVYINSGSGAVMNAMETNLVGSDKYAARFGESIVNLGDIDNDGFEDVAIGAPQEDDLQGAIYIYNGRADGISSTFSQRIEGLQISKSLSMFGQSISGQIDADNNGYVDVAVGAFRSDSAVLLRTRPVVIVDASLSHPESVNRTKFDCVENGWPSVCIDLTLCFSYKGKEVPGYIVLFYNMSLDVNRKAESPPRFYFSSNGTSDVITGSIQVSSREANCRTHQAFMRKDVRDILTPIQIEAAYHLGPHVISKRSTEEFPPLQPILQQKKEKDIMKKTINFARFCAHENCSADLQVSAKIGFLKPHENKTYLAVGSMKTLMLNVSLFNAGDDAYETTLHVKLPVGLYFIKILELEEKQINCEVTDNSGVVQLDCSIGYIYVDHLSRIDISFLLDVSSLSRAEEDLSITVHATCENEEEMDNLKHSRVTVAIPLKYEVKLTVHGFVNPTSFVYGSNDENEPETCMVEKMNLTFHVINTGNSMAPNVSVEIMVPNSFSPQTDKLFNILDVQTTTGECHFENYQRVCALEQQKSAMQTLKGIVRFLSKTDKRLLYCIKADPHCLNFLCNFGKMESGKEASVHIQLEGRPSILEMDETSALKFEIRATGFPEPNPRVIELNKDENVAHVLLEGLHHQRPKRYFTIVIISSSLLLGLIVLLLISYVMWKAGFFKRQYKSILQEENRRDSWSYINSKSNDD
Adenosine kinase (Homo sapiens), sequence (P55263 2-362 limits assumed): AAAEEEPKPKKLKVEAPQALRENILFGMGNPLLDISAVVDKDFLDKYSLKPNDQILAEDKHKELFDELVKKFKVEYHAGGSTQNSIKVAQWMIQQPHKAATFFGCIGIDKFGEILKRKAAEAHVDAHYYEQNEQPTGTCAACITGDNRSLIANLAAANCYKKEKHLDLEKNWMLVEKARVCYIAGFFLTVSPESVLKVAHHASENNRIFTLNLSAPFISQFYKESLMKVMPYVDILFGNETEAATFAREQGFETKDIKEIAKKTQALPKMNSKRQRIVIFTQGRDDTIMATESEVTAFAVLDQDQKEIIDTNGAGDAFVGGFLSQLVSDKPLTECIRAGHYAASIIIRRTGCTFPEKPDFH

Consider `Nc1ccc(-c2cc3c(Nc4cccc(Cl)c4)ncnc3[nH]2)cc1`, for which the Activity entry in assay [1] is “Dose-dependent effect”; in assay [5], 40%; in assay [6] it was 40%; in assay [7], 40%; in assay [8], 40%. Further, in assay [2], the pIC50 (commonly −log10 of the IC50, conventionally taken in molar units) is 6.30. Also, the outcome in assay [3] and in assay [4] was Active.
